Laboratory results reported in patent US8772499B2, “TRPV3 modulators” (AbbVie Inc., priority 2011, dated 2014).
Read-outs that look alike come from different tables or passages of the source.

Assays:
[1] = In vitro rat microsomal stability assay; format: in vitro ADME, rat (Sprague-Dawley); conditions: Sprague-Dawley, rat, microsomes, 0.5 h, 0.5 μM, pH 7.4
How it was run: (§1)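 Test compounds were incubated at 37° C. with Sprague-Dawley rat liver microsomes or with human liver microsomes. NADPH was supplied as cofactor and was also added to the time-zero plates.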

human TRPV3 = target: T1, human TRPV3 (Homo sapiens, UniProt Q8NET8); assay: In vitro antagonism of recombinant human TRPV3 activation (FLIPR Tetra calcium assay); format: cell-based; conditions: HEK293 cells stably expressing human TRPV3, agonist 2-APB at 80 μM
T1 construct: expressed in transfected cells
T1 sequence (Q8NET8 1-790): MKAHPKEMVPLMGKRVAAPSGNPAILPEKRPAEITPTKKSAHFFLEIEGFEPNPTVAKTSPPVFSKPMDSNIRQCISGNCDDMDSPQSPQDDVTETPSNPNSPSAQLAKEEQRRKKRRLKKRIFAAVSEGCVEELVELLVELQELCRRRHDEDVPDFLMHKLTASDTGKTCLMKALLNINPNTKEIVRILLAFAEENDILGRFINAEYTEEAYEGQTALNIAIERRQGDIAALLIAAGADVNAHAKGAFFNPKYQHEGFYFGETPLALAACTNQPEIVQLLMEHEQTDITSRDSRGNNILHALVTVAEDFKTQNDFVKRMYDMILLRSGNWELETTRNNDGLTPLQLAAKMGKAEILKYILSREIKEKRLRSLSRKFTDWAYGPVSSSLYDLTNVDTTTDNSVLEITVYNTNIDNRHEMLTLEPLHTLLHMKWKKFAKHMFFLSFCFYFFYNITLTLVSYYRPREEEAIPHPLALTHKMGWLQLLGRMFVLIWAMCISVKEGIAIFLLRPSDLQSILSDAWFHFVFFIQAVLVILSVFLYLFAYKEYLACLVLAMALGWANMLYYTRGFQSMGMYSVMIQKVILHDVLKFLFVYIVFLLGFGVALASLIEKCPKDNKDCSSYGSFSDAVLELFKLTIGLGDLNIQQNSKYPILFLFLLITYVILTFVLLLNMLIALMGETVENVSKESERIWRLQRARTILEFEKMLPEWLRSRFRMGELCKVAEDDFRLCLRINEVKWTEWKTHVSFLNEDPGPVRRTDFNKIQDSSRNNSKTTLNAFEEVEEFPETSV
How it was run: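 HEK293 cells stably expressing human TRPV3, loaded with Calcium-4 dye for 90–120 min, received compound in DPBS, then 80 μM 2-APB (EC80) 3 min later. Max-minus-min fluorescence expressed as % of 2-APB response without antagonist; IC50 values mostly averages of n≥2 runs.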

[2] = In vitro human microsomal stability assay; format: in vitro ADME; conditions: human, microsomes, 0.5 h, 0.5 μM, pH 7.4
How it was run: as §1

[3] = actual measured value shown parenthetically, in most cases average of at least two runs, read-out: IC50
[4] = reported range, read-out: IC50 (range class)

SMILES | RAT MICROSOMAL STABILITY (% REMAINING AFTER 30 MINUTES) [1] [%] | IC50 (human TRPV3; [3]) [µM] | HUMAN MICROSOMAL STABILITY (% REMAINING AFTER 30 MINUTES) [2] [%] | IC50 (human TRPV3; [4]) [µM]
CC(C)(C)OC(=O)N1CCC(C2(C(O)c3ccccn3)CCC2)C1 (stereo not drawn) [Example 265, tert-butyl 3-{1-[hydroxy(pyridin-2-yl)methyl]cyclobutyl}pyrrolidine-1-carboxylate] | 0.059 | 5.64 | 43 | 
OC(c1ccccn1)C1(c2nc3ccccc3s2)CCC1 (stereo not drawn) [Example 266, [1-(1,3-benzothiazol-2-yl)cyclobutyl](pyridin-2-yl)methanol] | 0.14 | 2.31 | 46 | 
CN(C)N=C1CC(c2ccc(OC(F)(F)F)cc2)([C@H](O)c2ccccn2)C1 (stereo partly drawn) [Example 267, (S)-{3-(dimethylhydrazinylidene)-1-[4-(trifluoromethoxy)phenyl]-cyclobutyl}(pyridin-2-yl)methanol] | 10 | 2.41 | 64 | 
OC(c1ccccn1)C1(c2nc3ccccc3o2)CCC1 (stereo not drawn) [Example 271, [1-(1,3-benzoxazol-2-yl)cyclobutyl](pyridin-2-yl)methanol] | 8.6 | 2.19 | 62 | 
OC(c1ccccn1)C1(C2CCC(F)(F)CC2)CCC1 (stereo not drawn) [Example 274, [1-(4,4-difluorocyclohexyl)cyclobutyl](pyridin-2-yl)methanol] | 10 | 3.11 | 55 | 
Cn1c(C2(C(O)c3ccccn3)CCC2)nc2ccccc21 (stereo not drawn) [Example 275, [1-(1-methyl-1H-benzimidazol-2-yl)cyclobutyl](pyridin-2-yl)methanol] | 5.7 | 19 | 67 | 
OC1CC(c2ccc(F)c(Cl)c2)([C@H](O)c2ccccn2)C1 (stereo partly drawn) [Example 276, 3-(3-chloro-4-fluorophenyl)-3-[(S)-hydroxy(pyridin-2-yl)methyl]-cyclobutanol] | 73 | 0.2 | 72 | 
O=C1CC(c2cc(C(F)(F)F)ccn2)([C@H](O)c2ccccn2)C1 [Example 277, 3-[(S)-hydroxy(pyridin-2-yl)methyl]-3-[4-(trifluoromethyl)pyridin-2-yl]-cyclobutanone] | >85 | 1.97 | >85 | 
O=C1CC(c2cc(C(F)(F)F)ccn2)([C@@H](O)c2ccccn2)C1 [Example 278, 3-[(R)-hydroxy(pyridin-2-yl)methyl]-3-[4-(trifluoromethyl)pyridin-2-yl]-cyclobutanone] | >85 | 6.6 | 83 | 
CC(C)(C)OC(=O)N1CCC(C2(C(O)c3ccccn3)CCC2)CC1 (stereo not drawn) [Example 279, tert-butyl 4-{1-[hydroxy(pyridin-2-yl)methyl]cyclobutyl}piperidine-1-carboxylate] | <0.01 | 7.5 | 22 | 
OC(c1ccccn1)C1(C2CCC(C(F)(F)F)CC2)CCC1 (stereo not drawn) [Example 280, pyridin-2-yl{1-[4-(trifluoromethyl)cyclohexyl]cyclobutyl}methanol] | <0.01 | 1.95 | 9.0 | 
OC(c1ccccn1)C1(C2CCCOC2)CCC1 (stereo not drawn) [Example 281, pyridin-2-yl[1-(tetrahydro-2H-pyran-3-yl)cyclobutyl]methanol] | 0.054 | 7.69 | >85 | 
OC1CC(c2cc(C(F)(F)F)ccn2)(C(O)c2ccccn2)C1 [Example 282, cis-3-[(S)-hydroxy(pyridin-2-yl)methyl]-3-[4-(trifluoromethyl)pyridin-2-yl]cyclobutanol] | >85 | 0.74 | >85 | 
OC(c1ccccn1)C1(C2CCOC2)CCC1 (stereo not drawn) [Example 284, pyridin-2-yl[1-(tetrahydrofuran-3-yl)cyclobutyl]methanol] | 16 | > 20 | >85 | > 20
CC1(O)CC(c2cc(C(F)(F)F)ccn2)(C(O)c2ccccn2)C1 (stereo not drawn) [Example 286] | 70 | 1.47 | >85 | 
COc1ccc(C(O)C2(c3ccc(Cl)c(Cl)c3)CCC2)nc1 (stereo not drawn) [Example 287, [1-(3,4-dichlorophenyl)cyclobutyl](5-methoxypyridin-2-yl)methanol] | <0.01 | > 20 | 15 | > 20
CC(=O)O[C@H](c1ccccn1)C1(c2ccc(OC(F)(F)F)cc2)CCC1 [Example 288, (S)-pyridin-2-yl{1-[4-(trifluoromethoxy)phenyl]cyclobutyl}methyl acetate] | <0.01 | 14.6 | <0.01 | 
COc1ccnc(C(O)C2(c3ccc(Cl)c(Cl)c3)CCC2)c1 (stereo not drawn) [Example 289, [1-(3,4-dichlorophenyl)cyclobutyl](4-methoxypyridin-2-yl)methanol] | <0.01 | > 20 | 4.2 | > 20
Cc1cc(C(F)(F)F)cc(C2([C@@H](O)c3ccccn3)CC(=O)C2)n1 [Example 291, 3-[(R)-hydroxy(pyridin-2-yl)methyl]-3-[6-methyl-4-(trifluoromethyl)-pyridin-2-yl]cyclobutanone] | 53 | 17.3 | >85 | 
OC(c1ccccn1)C1(c2nc3ccc(Cl)cc3s2)CCC1 (stereo not drawn) [Example 292, [1-(6-chloro-1,3-benzothiazol-2-yl)cyclobutyl](pyridin-2-yl)methanol] | 5.4 | 0.56 | 19 | 
O=C1CC(c2cc(C(F)(F)F)ccn2)(C(O)c2ccccn2)C1 (stereo not drawn) [Example 293, 3-[hydroxy(pyridin-2-yl)methyl]-3-[4-(trifluoromethyl)pyridin-2-yl]-cyclobutanone] | 69 | > 20 | 78 | > 20
OC1CC(c2cc(C(F)(F)F)ccn2)([C@H](O)c2ccccn2)C1 (stereo partly drawn) [Example 294, 3-[(S)-hydroxy(pyridin-2-yl)methyl]-3-[4-(trifluoromethyl)pyridin-2-yl]-cyclobutanol] | >85 | > 20 | >85 | > 20
O=C1CC(c2cncc(C(F)(F)F)c2)(C(O)c2ccccn2)C1 (stereo not drawn) [Example 295, 3-[hydroxy(pyridin-2-yl)methyl]-3-[5-(trifluoromethyl)pyridin-3-yl]-cyclobutanone] | 8.2 | > 20 | 70 | > 20
